Test in all cases: NCI tumour cell line growth inhibition, 48 h
In test [1] the test system is A549.
The subject of test [2] is SK-MEL-2.
Test [3] relates to 786-0.
Test [4] concerns UACC-62.
Test [5] has as its system CAKI-1.
The test system of test [6] is A498.
Test [7] deals with RXF 393.
Test [8] relates to SN12C.
The test system of test [9] is HCT-15.
Test [10] concerns U-251.
Test [11] relates to NCI-H226.
Test [12] has as its system OVCAR-3.
The subject of test [13] is UO-31.
For test [14], the system named is SK-MEL-5.
The test system of test [15] is SR.
The subject of test [16] is M14.
The test system of test [17] is NCI-H23.
For test [18], the system named is MDA-MB-231.
The subject of test [19] is MDA-N.
Test [20] deals with MCF7.

Each structure is given as a SMILES string.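 Growth conditions: 96-well plates. Treatment: test compound, 48 hours, 5 concentrations. Analysis: linear interpolation between bracketing concentrations; unreached endpoints set to highest concentration. GI50 marks 50% less growth.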 The source made the active and inactive calls. Rule as the data show it: active = GI50 up to about 1.1 µM and inactive = higher. Where only a bound is given, the exact number is not on record here.

Take `O=C1CC(c2ccccc2)=Nc2ccccc2N1`: the GI50 is > 100 µM (inactive) in test [1]; > 100 µM (inactive) in test [2]; > 100 µM (inactive) in [3]; > 100 µM (inactive) in [4]; > 100 µM (inactive) in test [5]; 24.7 µM (inactive) in test [6]. The GI50 is > 100 µM (inactive) in test [7]; > 100 µM (inactive) in test [8]; greater than 100 µM in test [9]; > 100 µM (inactive) in [10]; > 100 µM (inactive) in [11]; > 100 µM (inactive) in [12]. The GI50 in [13], in [14], in test [15], in test [16] and in test [17] was > 100 µM (inactive) in each case.
Consider `COc1ccc(-c2oc3c(OC)c(OC)c(OC)c(O)c3c(=O)c2OC)cc1O`, for which the GI50 in test [1] was 0.36 µM (active); in test [2], 0.0546 µM (active); in [3], 0.446 µM (active); in test [4], 0.0481 µM (active); in test [5], 0.557 µM (active); in test [6], 1.6 µM (inactive). In addition, the GI50 was 0.0559 µM (active) in [7]; 0.0641 µM (active) in [8]; 0.35 µM in test [9]; 0.242 µM (active) in test [10]; 0.0612 µM (active) in test [11]; 0.0632 µM (active) in test [12]. In addition, the GI50 was 0.082 µM (active) in test [13]; 0.113 µM (active) in test [14]; 0.0702 µM (active) in test [15]; 0.0592 µM (active) in [16]; 0.254 µM (active) in test [17].
`CC1=C(/C=C/C2=CC(=C\C(=O)O)/CC(C3=C(C)CCCC3(C)C)C2)C(C)(C)CCC1` (centres undefined): the GI50 in test [1] was 4.8 µM (inactive); in test [2] it was 11.3 µM (inactive); in test [3], 14.8 µM (inactive); in test [4] it was 10.9 µM (inactive); in test [5], 15.9 µM (inactive); in test [6] it was 15.2 µM (inactive). The GI50 is 10.8 µM (inactive) in test [7]; 15.6 µM (inactive) in test [8]; 11.1 µM (inactive) in test [10]; 11.2 µM (inactive) in test [11]; 14 µM (inactive) in test [12]; 10.7 µM (inactive) in [13]. The GI50 was 14.8 µM (inactive) in [14], 5.65 µM (inactive) in [15], 14.8 µM (inactive) in test [16] and 13.9 µM (inactive) in [17].
In the case of `CN(C)C(=S)N1C(=S)N(c2ccccc2)C(=N/c2ccccc2)/C1=N\c1ccccc1`, the GI50 in test [1], in test [2], in [3], in test [4], in test [5] and in test [6] was > 100 µM (inactive) throughout. The GI50 was > 100 µM (inactive) in test [7]; > 100 µM (inactive) in test [8]; greater than 100 µM in test [9]; > 100 µM (inactive) in test [10]; > 100 µM (inactive) in test [11]; > 100 µM (inactive) in [13]. In addition, the GI50 in test [14], in [15], in test [18], in test [17] and in [19] was > 100 µM (inactive) throughout.
For the molecule `COc1cc(C2C3=C(CCCC3=O)N(c3ccc(C)cc3)C3=C2C(=O)CCC3)c([N+](=O)[O-])cc1OC`, the GI50 in test [1] is 54.5 µM (inactive); in [3], 63.1 µM (inactive); in test [4] it was 90.4 µM (inactive); in test [5] it was > 100 µM (inactive); in [6], > 100 µM (inactive); in [7], 30 µM (inactive). Moreover, the GI50 in test [8] was > 100 µM (inactive); in [9], 68.1 µM; in [20], 39.4 µM (inactive); in test [10] it was 42 µM (inactive); in test [11] it was 76.9 µM (inactive); in test [12] it was 96.2 µM (inactive). Also, the GI50 in [13] was > 100 µM (inactive); in test [14], 64.6 µM (inactive); in test [15] it was 54.2 µM (inactive); in test [16], > 100 µM (inactive); in [17], > 100 µM (inactive).
With `[O-][S+]1CSSC1`, the GI50 in test [1] was 33.9 µM (inactive); in [2], 15.6 µM (inactive); in test [3], 20.7 µM (inactive); in test [4] it was 10.4 µM (inactive); in test [5] it was 28.1 µM (inactive); in test [6], 43.8 µM (inactive). The GI50 in test [7] was 19.9 µM (inactive); in [8] it was 12 µM (inactive); in test [10], 18.7 µM (inactive); in [11], 26.3 µM (inactive); in test [12], 17.9 µM (inactive); in test [13], 18.7 µM (inactive). For the same molecule, the GI50 is > 10 µM (inactive) in test [14], 9.79 µM (inactive) in [15], 22.5 µM (inactive) in test [16] and 28.7 µM (inactive) in [17].
In the case of `COc1cc(N(Cc2ccc3nc(OC)c(OC)nc3c2)Cc2ccc3nc(OC)c(OC)nc3c2)cc(OC)c1OC`, the GI50 was > 50 µM (inactive) in test [1]; 20.9 µM (inactive) in [2]; 16.3 µM (inactive) in test [3]; > 50 µM (inactive) in test [4]; > 50 µM (inactive) in [5]; 10.7 µM (inactive) in test [7]. The GI50 is > 50 µM (inactive) in test [8]; greater than 50 µM in test [9]; 32.9 µM (inactive) in test [20]; 19.8 µM (inactive) in [10]; > 50 µM (inactive) in test [11]; 31.5 µM (inactive) in test [12]. Also, the GI50 was 31.5 µM (inactive) in test [13]; > 50 µM (inactive) in [14]; > 50 µM (inactive) in test [15]; > 50 µM (inactive) in test [16]; > 50 µM (inactive) in test [17]; > 50 µM (inactive) in test [19].
For `Cc1ccc(S(=O)(=O)N(/N=C(\N)Oc2ccc(Cl)cc2)C(=N)Oc2ccc(Cl)cc2)cc1`, the GI50 in test [1], in test [2], in [3], in test [4], in [5] and in [6] was > 100 µM (inactive) each time. Also, the GI50 in test [7] was 74.1 µM (inactive); in [8], > 100 µM (inactive); in test [9], greater than 100 µM; in test [10], > 100 µM (inactive); in test [11], > 100 µM (inactive); in test [12] it was > 100 µM (inactive). Also, the GI50 in [13], in test [14], in [15], in [16] and in test [17] was > 100 µM (inactive) each time.
Consider `N#Cc1c(-c2ccccc2)[nH]c(=O)n(C2OC(CO)C(O)C(O)C2O)c1=O` (centres undefined), for which the GI50 in test [1], in [2], in [3], in [4], in test [5] and in test [6] was > 100 µM (inactive) throughout. Besides, the GI50 is > 100 µM (inactive) in [7]; > 100 µM (inactive) in test [8]; greater than 100 µM in test [9]; > 100 µM (inactive) in test [20]; > 100 µM (inactive) in test [10]; > 100 µM (inactive) in test [12]. For the same molecule, the GI50 in [13], in test [14], in test [16], in test [18] and in test [17] was > 100 µM (inactive) each time.
On to `COc1cc2c3cc1Oc1c(OC)c(OC)cc4c1[C@@H](Cc1ccc(O)c(c1)Oc1ccc(cc1)C[C@@H]3N(C)CC2)N(C)CC4.c1ccccc1`, for which the GI50 in test [1] was 22.5 µM (inactive); in [2] it was 16.9 µM (inactive); in test [3] it was 12.8 µM (inactive); in test [4], 16 µM (inactive); in test [5], 1.79 µM (inactive); in test [6], 20.3 µM (inactive). Further, the GI50 in test [7] is 12.4 µM (inactive); in test [8], 18.7 µM (inactive); in [9] it was 12.3 µM; in test [10], 10.1 µM (inactive); in test [11], 22.2 µM (inactive); in [12], 14.4 µM (inactive). Besides, the GI50 in [13] was 15.7 µM (inactive); in test [14] it was 3.89 µM (inactive); in test [15] it was 2.33 µM (inactive); in test [16], 4.61 µM (inactive); in test [17], 24.1 µM (inactive).
Regarding `O=C(O)Cc1cc(O)c(CC(=O)O)cc1O`, the GI50 in test [1], in test [2], in test [3], in [4], in [5] and in test [6] was > 100 µM (inactive) throughout. The GI50 was > 100 µM (inactive) in test [7]; > 100 µM (inactive) in test [8]; greater than 100 µM in [9]; > 100 µM (inactive) in test [10]; > 100 µM (inactive) in test [11]; > 100 µM (inactive) in test [12]. For the same molecule, the GI50 in test [13], in [14], in [15], in test [16], in test [18] and in [17] was > 100 µM (inactive) throughout. The GI50 in test [19] is > 100 µM (inactive).
For `COc1ccc(/C=C2\CN(C)CC3C2=NN(c2ccccc2)C3c2ccc(OC)cc2)cc1` (centres undefined), the GI50 was > 100 µM (inactive) in test [1]; 27.7 µM (inactive) in [3]; 75 µM (inactive) in test [4]; 60 µM (inactive) in [5]; 33.8 µM (inactive) in test [6]; 13 µM (inactive) in test [7]. Besides, the GI50 in test [8] is > 100 µM (inactive); in test [9], greater than 100 µM; in test [20] it was > 100 µM (inactive); in [11] it was > 100 µM (inactive); in test [12], > 100 µM (inactive); in test [13], > 100 µM (inactive). Moreover, the GI50 was > 100 µM (inactive) in test [14], 27.2 µM (inactive) in [16], > 100 µM (inactive) in test [17] and > 100 µM (inactive) in [19].

The values are drawn from ChEMBL document CHEMBL1201862, “PubChem BioAssay data set” (2004).
